Experimental findings from PubChem BioAssay (NCI) are described below.

Among the test systems are RPMI-8226 leukemia; HT29 colon; SK-OV-3 ovarian; NCI-H23 lung; U251 CNS; IGROV1 ovarian; SF-295 CNS; UACC-62 melanoma; OVCAR-4 ovarian; HOP-62 NSCLC.
What all share (assay): inhibition of tumour cell growth, NCI panel, 48 h

Molecules are shown by their SMILES. “And” between values parts separate entries of the source, which are not always exact repeats. Equal entries are not always repeated.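 96-well plates; 48 h exposure; 5 concentrations. Endpoints by linear interpolation between flanking doses. Not reached: highest tested concentration assigned. At the GI50, growth is halved. TGI marks complete inhibition of growth.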

Consider `COc1cc(/C=N/N=C(\N)NO)ccc1O`, for which the TGI with RPMI-8226 leukemia, in the experiment with HT29 colon, in the experiment with SK-OV-3 ovarian, with NCI-H23 lung, with U251 CNS and in the experiment on IGROV1 ovarian was over 100 µM in each case. The TGI in the experiment with SF-295 CNS, with UACC-62 melanoma and with OVCAR-4 ovarian was over 100 µM throughout.
Consider `CCN(CC)CCCC(C)Nc1c2ccc(Cl)cc2nc2cc(Cl)ccc12` (centres undefined), for which the TGI with RPMI-8226 leukemia is 5.11 µM; in the experiment on HT29 colon, 8.28 µM; with SK-OV-3 ovarian, 21.9 µM; with NCI-H23 lung it was 20.8 µM; with HOP-62 NSCLC, 22.1 µM; in the experiment with U251 CNS it was 14.3 µM. Also, the TGI in the experiment with IGROV1 ovarian was 19.5 µM; in the experiment with SF-295 CNS it was 8.49 µM; in the experiment with UACC-62 melanoma, 16.1 µM; with OVCAR-4 ovarian, 9.68 µM.
Turning to `CC(C)C(=O)Nc1ccc(-c2nc(-c3cccc(OCCN4CCOCC4)c3)c(-c3ccnc(Br)c3)[nH]2)cc1`, the GI50 in the experiment with RPMI-8226 leukemia is 1.09 µM; with SK-OV-3 ovarian, 2.45 µM; with NCI-H23 lung, 3.12 µM; in the experiment with HOP-62 NSCLC it was 2.94 µM; in the experiment with U251 CNS, 2.27 µM; with IGROV1 ovarian, 3.75 µM. Further, the figures for the GI50 in the experiment on SF-295 CNS, with UACC-62 melanoma and in the experiment on OVCAR-4 ovarian were 1.09 µM, 2.1 µM and 4.46 µM, respectively. The TGI is 4 µM with RPMI-8226 leukemia; 5.53 µM with SK-OV-3 ovarian; 18 µM in the experiment with NCI-H23 lung; 14.5 µM with HOP-62 NSCLC; 14.5 µM in the experiment with U251 CNS; over 100 µM in the experiment with IGROV1 ovarian. Further, the TGI in the experiment on SF-295 CNS was 2.88 µM; with UACC-62 melanoma, 5.71 µM; with OVCAR-4 ovarian, over 100 µM.
With `OC(c1ccccc1)C1CC2C=CC1C2` (centres undefined), the TGI with RPMI-8226 leukemia, with HT29 colon, with SK-OV-3 ovarian, in the experiment with NCI-H23 lung, in the experiment on HOP-62 NSCLC and in the experiment with U251 CNS was over 100 µM throughout. Moreover, the TGI in the experiment on IGROV1 ovarian, in the experiment on SF-295 CNS, in the experiment with UACC-62 melanoma and in the experiment on OVCAR-4 ovarian was over 100 µM each time.
Take `CN(CC(=O)O)CC(=O)O`: the TGI with RPMI-8226 leukemia, with HT29 colon, in the experiment with SK-OV-3 ovarian, in the experiment with NCI-H23 lung, in the experiment with HOP-62 NSCLC and in the experiment with U251 CNS was over 100 µM in each case. Further, the TGI with IGROV1 ovarian, with SF-295 CNS, in the experiment with UACC-62 melanoma and in the experiment on OVCAR-4 ovarian was over 100 µM each time.
For the molecule `COc1ccc(N2C(=O)C(=O)N(C)C2=O)c2ccccc12`, the TGI with RPMI-8226 leukemia, in the experiment on HT29 colon, with SK-OV-3 ovarian, in the experiment on NCI-H23 lung, in the experiment with HOP-62 NSCLC and with U251 CNS was over 10 µM in each case. Besides, the TGI with IGROV1 ovarian, in the experiment with SF-295 CNS, in the experiment with UACC-62 melanoma and in the experiment with OVCAR-4 ovarian was over 10 µM in each case.
As to `COC1=CC(=O)c2c(c(COC(C)=O)cn2C)C1=O`, the TGI in the experiment with RPMI-8226 leukemia is 0.584 µM; in the experiment with HT29 colon, 0.124 µM; with SK-OV-3 ovarian, 0.677 µM; in the experiment with NCI-H23 lung, 0.417 µM; with U251 CNS, 0.734 µM; in the experiment with IGROV1 ovarian, 0.443 µM. The TGI with SF-295 CNS amounted to 0.0692 µM; in the experiment with UACC-62 melanoma, 0.283 µM; in the experiment on OVCAR-4 ovarian, 1.04 µM.
Regarding `CC[C@@]1(O)C(=O)OCc2c1cc1n(c2=O)Cc2cc3c(CN(C)C)c(O)ccc3nc2-1`, the GI50 was 0.163 µM and 0.0818 µM and 0.435 µM with RPMI-8226 leukemia; 0.0669 µM and 0.0589 µM and 0.24 µM in the experiment on HT29 colon; 0.0088 µM and 0.0362 µM in the experiment on NCI-H23 lung; 0.0102 µM and 0.00621 µM and 0.0163 µM with HOP-62 NSCLC; 0.231 µM and 0.116 µM and 0.392 µM in the experiment on IGROV1 ovarian; < 0.01 µM and 0.0104 µM and 0.0304 µM in the experiment with SF-295 CNS. The GI50 with OVCAR-4 ovarian is 0.319 µM and 0.812 µM and 0.571 µM. Also, the TGI in the experiment on HT29 colon is 8.1 µM and 20.2 µM and 6.7 µM.
Turning to `CC1(CO)C(O)CCC2(C)C1C(O)CC1CC3CC12CCC3(O)CO` (centres undefined), the TGI was over 196 µM with RPMI-8226 leukemia; over 225 µM with HT29 colon; over 225 µM in the experiment with SK-OV-3 ovarian; over 225 µM in the experiment with NCI-H23 lung; over 225 µM with HOP-62 NSCLC; over 225 µM in the experiment with U251 CNS. Besides, the TGI is over 225 µM with IGROV1 ovarian, over 104 µM in the experiment with SF-295 CNS, over 225 µM in the experiment on UACC-62 melanoma and over 225 µM with OVCAR-4 ovarian.
Turning to `Clc1ccc(C2CC(c3cccc(Nc4ccncc4)c3)=NN2c2ccccc2)cc1` (centres undefined), the GI50 with HT29 colon was 1.69 µM; in the experiment on SK-OV-3 ovarian, 2.57 µM; in the experiment with NCI-H23 lung it was 1.92 µM; in the experiment on HOP-62 NSCLC it was 2.31 µM; in the experiment with U251 CNS it was 1.89 µM; in the experiment with IGROV1 ovarian, 1.56 µM. The GI50 in the experiment on SF-295 CNS is 1.66 µM; with UACC-62 melanoma it was 1.71 µM; in the experiment with OVCAR-4 ovarian, 1.64 µM. Moreover, the TGI in the experiment on HT29 colon amounted to 3.62 µM; in the experiment with SK-OV-3 ovarian, 7.33 µM; in the experiment on NCI-H23 lung it was 3.7 µM; in the experiment on HOP-62 NSCLC it was 5.15 µM; in the experiment with U251 CNS, 3.81 µM; in the experiment with IGROV1 ovarian it was 3.04 µM. Besides, the results for the TGI in the experiment with SF-295 CNS, in the experiment with UACC-62 melanoma and in the experiment on OVCAR-4 ovarian were 3.07 µM, 3.13 µM and 3.17 µM, respectively.
Regarding `O=c1ccc2c(Cl)cccc2o1`, the TGI with RPMI-8226 leukemia, in the experiment with NCI-H23 lung, in the experiment with HOP-62 NSCLC, in the experiment on U251 CNS, in the experiment with IGROV1 ovarian and with SF-295 CNS was over 100 µM in each case. The TGI with UACC-62 melanoma and in the experiment with OVCAR-4 ovarian was over 100 µM each time.
As to `CNCCCn1c2c(c3ccc(Cl)cc3c1=O)C(=O)c1cc(OC)cnc1-2`, the GI50 in the experiment with HT29 colon was 1.08 µM; in the experiment on SK-OV-3 ovarian, 0.658 µM; with SF-295 CNS it was 0.132 µM; with OVCAR-4 ovarian, 1.27 µM. The TGI is 2.45 µM in the experiment with HT29 colon, 2.08 µM in the experiment with SK-OV-3 ovarian, 1.38 µM with SF-295 CNS and 2.93 µM in the experiment on OVCAR-4 ovarian.
For the molecule `CC(C)NC(=O)OCc1nnn2c1CCC2`, the TGI in the experiment with HT29 colon, with SK-OV-3 ovarian, in the experiment on NCI-H23 lung, with HOP-62 NSCLC, in the experiment on U251 CNS and in the experiment on IGROV1 ovarian was over 100 µM each time. Also, the TGI with SF-295 CNS, in the experiment with UACC-62 melanoma and with OVCAR-4 ovarian was over 100 µM throughout.
On to `CSC1=C(SC)C(=O)c2cn(C)c(=O)cc2C1=O`, for which the TGI is over 100 µM in the experiment on RPMI-8226 leukemia; 13.1 µM in the experiment with HT29 colon; 31.3 µM in the experiment on SK-OV-3 ovarian; 11.1 µM with NCI-H23 lung; 24.8 µM in the experiment with HOP-62 NSCLC; 26.2 µM in the experiment on U251 CNS. For the same molecule, the TGI with IGROV1 ovarian amounted to 25.4 µM; in the experiment with SF-295 CNS, 26 µM; in the experiment on UACC-62 melanoma, 7.21 µM; in the experiment on OVCAR-4 ovarian it was 3.74 µM.
As to `CC(C(=O)NCCNC(=O)CCCC(=O)N(C)O)C(=O)NCCNC(=O)CCCC(=O)N(C)O`, the TGI with RPMI-8226 leukemia, in the experiment with HT29 colon, in the experiment with SK-OV-3 ovarian, in the experiment on NCI-H23 lung, with HOP-62 NSCLC and in the experiment with U251 CNS was over 100 µM each time. In addition, the TGI with IGROV1 ovarian, with SF-295 CNS, with UACC-62 melanoma and in the experiment with OVCAR-4 ovarian was over 100 µM throughout.
With `CC(C)=CC1C(COC(=O)c2ccccc2Cl)C1(C)C` (centres undefined), the TGI with HT29 colon is over 100 µM; with NCI-H23 lung, over 100 µM; in the experiment with HOP-62 NSCLC, over 100 µM; with U251 CNS, 90.2 µM; in the experiment on IGROV1 ovarian, 57.6 µM; with SF-295 CNS it was over 100 µM. In addition, the TGI in the experiment with UACC-62 melanoma and with OVCAR-4 ovarian was over 100 µM each time.
As to `C1=Nc2ccccc2Cn2nncc21`, the TGI in the experiment on RPMI-8226 leukemia, in the experiment on HT29 colon, in the experiment with SK-OV-3 ovarian, in the experiment with NCI-H23 lung, with HOP-62 NSCLC and in the experiment with U251 CNS was over 100 µM throughout. Also, the TGI in the experiment with IGROV1 ovarian was over 100 µM; in the experiment on UACC-62 melanoma, 55.3 µM; in the experiment with OVCAR-4 ovarian, over 100 µM.
